Assay results as given in US8741889B2, “Method of treating non-small cell lung cancer and colon cancer with gamma-secretase inhibitor” (Hoffmann-La Roche Inc, priority 2008, dated 2014).

Experiments:
[1] = tested on: AsPC1 human pancreatic carcinoma xenografts; experiment: Antitumor efficacy in AsPC1 pancreatic xenografts in nude mice; type: in vivo; settings: 90 mg/kg ip q3d
Protocol: Female (athymic nu/nu) nude mice were obtained from Charles River Laboratories (Wilmington, Mass.), while female SCID-beige mice were purchased from Taconic (Germantown, N.Y.). Mice were used when they were approximately 8-12 weeks old (nudes) or 8-10 weeks old (SCID-beige), and weighed approximately 23-25 grams. The health of all animals was determined daily by gross observation of experimental animals and by the analyses of blood samples of sentinel animals that were housed on the shared shelf racks. All animals were allowed to acclimate and recover from any shipping related stress for a minimum of 72 hours prior to experimental use. Autoclaved water and irradiated food [5058-ms Pico chow (mouse) Purina, Richmond, Ind.] were provided ad libitum, and the animals were maintained on a 12 hour light and dark cycle. Cages, bedding and water bottles were autoclaved before use and were changed weekly. MiaPaca2, AsPC1 and BxPC3 human pancreatic carcinoma cells were purchased from ATCC (Manassas, Va.). BxPC3 and AsPC1 cells were grown in RPMI medium and MiaPaca2 cells were grown in Dulbecco's Modified Essential Medium (DMEM). All culture media were supplemented with 10% (v/v) FBS and 1% (v/v) […]. […] SCID-biege mice were implanted se with 5×10^6 BxPC3 cells in a 1:1 mixture of matrigel:PBS in a volume of 0.2 ml per mouse in the right hind flank on May 22, 2007. […] Formulated compound and vehicle were stored at 4° C. and prepared weekly. The suspension was mixed vigorously prior to administration. Gemcitabine (Gemzar®, Eli Lilly and Company, Indianapolis, Ind., USA) was reconstituted with sterile saline to yield a stock solution of 38 mg/ml for the entire 3-4 week study. […] Nude mice implanted with MiaPaca2 or AsPC1 xenografts were randomized on day 17 and day 9 post cell implant, respectively. SCID-beige mice bearing BxPC3 xenografts were randomized 8 days post implant. […] Treatment for the MiaPaca2 study began on Feb. […] For the MiaPaca2 and AsPC1 studies, qd Compound (1) suspension or q3d gemcitabine treatment ended on day 37 post tumor cell implant, whereas for the BxPC3 study, qd Compound (1) suspension or q3d gemcitabine treatment ended on day 35 post tumor cell implant. For intermittent dosing of Compound (1) suspension in the AsPC1 study using the 7+/7− schedule×2 cycles, treatment ended on day 15, was reinitiated on day 23, and finally ended day 29. For intermittent dosing using the 3+/4− schedule×4 cycles, treatment ended on day 11, was reinitiated on day 16, ended day 18, was reinitiated on day 23, ended day 25, was reinitiated day 30, and finally ended on day 32. In the first combination group, daily Compound (1) was given simultaneously with q3d gemcitabine for a total of four weeks. For the remaining combination groups, Compound (1) and gemcitabine were given sequentially rather than simultaneously. In group 8 gemcitabine was dosed q3d during the 1st and 3rd weeks, whereas Compound (1) was given daily during the 2nd and 4th weeks only. In group 9, the order of compound dosing was reversed, with Compound (1) suspension given daily during the 1st and 3rd weeks, whereas gemcitabine was given q3d during the 2nd and 4th weeks. In group 10, gemcitabine was dosed q3d during the 1st and 2nd weeks, whereas Compound (1) was given daily during the 3rd and 4th weeks. In group 11, the order of compound dosing was reversed, with Compound (1) given daily during the 1st and 2nd weeks, and gemcitabine dosed q3d for the 3rd and 4th weeks. […]

[2] = tested on: MiaPaca2 human pancreatic carcinoma xenografts; experiment: Antitumor efficacy in MiaPaca2 pancreatic xenografts in nude mice; type: in vivo; settings: 60 mg/kg ip q3d, day 37
Protocol: Female (athymic nu/nu) nude mice were obtained from Charles River Laboratories (Wilmington, Mass.), while female SCID-beige mice were purchased from Taconic (Germantown, N.Y.). Mice were used when they were approximately 8-12 weeks old (nudes) or 8-10 weeks old (SCID-beige), and weighed approximately 23-25 grams. The health of all animals was determined daily by gross observation of experimental animals and by the analyses of blood samples of sentinel animals that were housed on the shared shelf racks. All animals were allowed to acclimate and recover from any shipping related stress for a minimum of 72 hours prior to experimental use. Autoclaved water and irradiated food [5058-ms Pico chow (mouse) Purina, Richmond, Ind.] were provided ad libitum, and the animals were maintained on a 12 hour light and dark cycle. Cages, bedding and water bottles were autoclaved before use and were changed weekly. MiaPaca2, AsPC1 and BxPC3 human pancreatic carcinoma cells were purchased from ATCC (Manassas, Va.). BxPC3 and AsPC1 cells were grown in RPMI medium and MiaPaca2 cells were grown in Dulbecco's Modified Essential Medium (DMEM). All culture media were supplemented with 10% (v/v) FBS and 1% (v/v) […]. […] SCID-biege mice were implanted se with 5×10^6 BxPC3 cells in a 1:1 mixture of matrigel:PBS in a volume of 0.2 ml per mouse in the right hind flank on May 22, 2007. […] Formulated compound and vehicle were stored at 4° C. and prepared weekly. The suspension was mixed vigorously prior to administration. Gemcitabine (Gemzar®, Eli Lilly and Company, Indianapolis, Ind., USA) was reconstituted with sterile saline to yield a stock solution of 38 mg/ml for the entire 3-4 week study. […] Nude mice implanted with MiaPaca2 or AsPC1 xenografts were randomized on day 17 and day 9 post cell implant, respectively. SCID-beige mice bearing BxPC3 xenografts were randomized 8 days post implant. […] Treatment for the MiaPaca2 study began on Feb. […] For the MiaPaca2 and AsPC1 studies, qd Compound (1) suspension or q3d gemcitabine treatment ended on day 37 post tumor cell implant, whereas for the BxPC3 study, qd Compound (1) suspension or q3d gemcitabine treatment ended on day 35 post tumor cell implant. For intermittent dosing of Compound (1) suspension in the MiaPaca2 study using the 7+/7−/7+ schedule, treatment ended on day 23, was reinitiated on day 31, and ended day 37. In the combination groups Compound (1) suspension was given sequentially with gemcitabine using the 7+/7−/7+ schedule so that Compound (1) was dosed daily only during the first and third weeks, whereas gemcitabine was dosed q3d during the second week only. Efficacy data was graphically represented as the mean tumor volume+standard error of the mean (SEM). Tumor volumes of treated groups were presented as percentages of tumor volumes of the control groups (% T/C), using the formula: 100×((T−T0)/(C−C0)), where T represented mean tumor volume of a treated group on a specific day during the experiment, T0 represented mean tumor volume of the same […] on the first day of treatment; C represented mean tumor volume of a control group on the specific day during the experiment, and C0 represented mean tumor volume of the same treated group on the first day of treatment. Tumor volume (in cubic millimeters) was calculated using the ellipsoid formula: (D×(d2))/2 where ‘D’ represents the large diameter of the tumor, and ‘d’ represents the small diameter. In some cases, tumor regression and/or percent change in tumor volume was calculated using the formula: ((T−T0)/T0)×100 where ‘T’ represents mean tumor volume of the treated group at a particular day, and ‘T0’ represents mean tumor volume of the same treated group at initiation of treatment. Statistical analysis was determined by the rank sum test and One Way Anova and a post-hoc Bonferroni t-test (SigmaStat, version 2.0, Jandel Scientific, San Francisco, Calif.). […]

Nc1ccn([C@@H]2O[C@H](CO)[C@@H](O)C2(F)F)c(=O)n1 [gemcitabine, Gemcitabine, reference compound]
% TGI [1]: 39%
% TGI [2]: 62%
